We go through 7 compounds from ChEMBL document CHEMBL1137033, “Novel bisbenzamidines as potential drug candidates for the treatment of Pneumocystis carinii pneumonia” (Bioorg Med Chem Lett, 2004).

Structures are written as SMILES.

The subject of experiment [1] is Pneumocystis carinii. Nature of the experiment: inhibitory concentration against Pneumocystis carinii. The class given is functional, organism-based.
The subject of experiment [2] is A549. Nature of the experiment: Cytotoxicity against A549 cell line. The class given is functional, cell-based. Conditions: Homo sapiens.

In the case of `N=C(N)c1ccc(NC(=O)CCCCC(=O)Nc2ccc(C(=N)N)cc2)cc1`, the IC50 was 2 nM in experiment [1] and more than 200 nM in experiment [2].
For `N=C(N)c1ccc(OCc2ccccc2COc2ccc(C(=N)N)cc2)cc1` the same measures were 1400 nM and 33100 nM.
The matching figures for `N=C(N)c1ccc(COc2ccccc2OCc2ccc(C(=N)N)cc2)cc1`: 1300 nM and 44100 nM.
As to `N=C(N)c1ccc(OCc2ccc(COc3ccc(C(=N)N)cc3)cc2)cc1`, the IC50 in experiment [1] was 1300 nM; in experiment [2], 30200 nM.
The matching figures for `N=C(N)c1ccc(NC(=O)CCCC(=O)Nc2ccc(C(=N)N)cc2)cc1`: 3 nM and more than 300 nM.
For `N=C(N)c1ccc(OC(=O)c2ccc(C(=O)Oc3ccc(C(=N)N)cc3)cc2)cc1` [BIS(4-CARBAMIMIDOYLPHENYL)TEREPHTHALATE] the same measures were 13400 nM and 121000 nM.
For `N=C(N)c1ccc(OCCCCCOc2ccc(C(=N)N)cc2)cc1` [PENTAMIDINE] the same measures were 500 nM and 24000 nM.

In general, IC50 refers to the concentration that inhibits the measured activity by half.
